Results on 18 molecules are retold here after US20260085062A1, “NOVEL COMPOUNDS AS CK2 INHIBITORS” (Cambridge Enterprise Limited, priority 2022, published 2026).

A value given as a limit tells only on which side of the number the result lay.

For assay [1], the target named is T1, CK2α (Homo sapiens, UniProt P68400).
T1 construct: CK2α (residues 2-329) was produced in Escherichia coli BL21 (DE3) for kinase activity screening; His6 (N, cleaved yes); made in house; host or cells: Escherichia coli BL21 (DE3)
T1 sequence (P68400 2-329): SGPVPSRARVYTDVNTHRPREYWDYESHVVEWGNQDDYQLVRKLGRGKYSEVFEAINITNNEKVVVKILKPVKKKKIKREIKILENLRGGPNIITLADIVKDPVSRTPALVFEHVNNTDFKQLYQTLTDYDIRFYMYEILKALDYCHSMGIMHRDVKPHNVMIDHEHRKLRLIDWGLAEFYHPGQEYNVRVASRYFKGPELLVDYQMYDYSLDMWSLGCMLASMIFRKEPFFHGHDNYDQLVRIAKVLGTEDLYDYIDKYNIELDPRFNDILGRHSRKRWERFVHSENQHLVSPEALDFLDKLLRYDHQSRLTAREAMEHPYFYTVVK
In words: Biochemical assay for inhibitors of CK2α kinase activity (ADP-Glo). As to conditions: 0.2 nM CK2α, 50 μM peptide substrate, 15 μM ATP, read-out: Assay 1: CK2α Enzyme IC50. Background: ADP-Glo turns the ADP formed in a reaction into a luminescent signal.

For assay [2], the target named is T2, CLK2 (Homo sapiens, UniProt P49760).
T2 construct: purchased Carna Biosciences 04-127
Briefly: Biochemical assay for inhibitors of CLK2 kinase activity (ADP-Glo). As to conditions: 20 nM CLK2, 50 μM peptide substrate, 100 μM ATP, read-out: Assay 2: CLK2 Enzyme IC50.

Assay [3] has as its target T3, intracellular CK2α (Homo sapiens, UniProt P19784).
T3 construct: host or cells: HCT116 (ATCC CCL-247)
Briefly: Cell-based NanoBRET assay for inhibitor binding to intracellular CK2α. The settings on record: HCT116 cells transiently transfected with CSNK2A2-NanoLuc fusion vector; Tracer K-5; 2 h; read-out: Assay 3: NanoBRET ™ assay for binding to intracellular CK2α. An outline of the steps:
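Apparent affinity came from BRET ratio (acceptor/donor ×1,000), with donor read at 450 nm and acceptor at 610 or 630 nm. Compounds competed off a tracer added at fixed concentration to cells carrying a NanoLuc-CK2α fusion.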
On the technique in general: In BRET a luciferase serves as donor, and the signal depends on an acceptor being close.

T2 sequence (P49760 whole entry): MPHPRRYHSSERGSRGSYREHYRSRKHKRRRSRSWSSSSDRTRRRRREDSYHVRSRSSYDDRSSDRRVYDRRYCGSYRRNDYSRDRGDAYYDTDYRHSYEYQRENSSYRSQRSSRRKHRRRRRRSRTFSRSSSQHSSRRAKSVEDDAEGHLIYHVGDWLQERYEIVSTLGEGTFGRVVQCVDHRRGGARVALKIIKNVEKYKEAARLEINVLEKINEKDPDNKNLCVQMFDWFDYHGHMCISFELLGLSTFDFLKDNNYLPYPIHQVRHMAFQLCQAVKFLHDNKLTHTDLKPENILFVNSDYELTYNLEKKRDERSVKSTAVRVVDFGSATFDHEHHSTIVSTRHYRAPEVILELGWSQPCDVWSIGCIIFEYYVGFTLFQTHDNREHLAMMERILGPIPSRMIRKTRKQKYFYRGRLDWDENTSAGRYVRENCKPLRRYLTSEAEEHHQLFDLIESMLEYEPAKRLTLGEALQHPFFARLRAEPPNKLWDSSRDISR
T3 sequence (P19784 whole entry): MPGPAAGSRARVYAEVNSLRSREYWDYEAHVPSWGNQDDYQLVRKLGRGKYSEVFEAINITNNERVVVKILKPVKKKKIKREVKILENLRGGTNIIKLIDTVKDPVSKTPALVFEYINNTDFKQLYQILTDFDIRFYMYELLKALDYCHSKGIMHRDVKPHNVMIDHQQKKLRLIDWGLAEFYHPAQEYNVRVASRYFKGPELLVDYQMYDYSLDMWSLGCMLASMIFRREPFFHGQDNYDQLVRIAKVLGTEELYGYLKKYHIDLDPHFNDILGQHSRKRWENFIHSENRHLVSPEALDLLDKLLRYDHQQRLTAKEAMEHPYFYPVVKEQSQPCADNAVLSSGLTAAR

`O=C(CCNCc1ccc(OC(F)(F)F)c(Cl)c1)NCCCNc1cc(-c2ccncc2F)cc2[nH]ncc12` [Example 162, 3-((3-chloro-4-(trifluoromethoxy)benzyl)amino)-N-(3-((6-(3-fluoropyridin-4-yl)-1H-indazol-4-yl)amino)propyl)propanamide]: the results for the IC50 in assay [1], in assay [2] and in assay [3] were 0.00653 µM, 0.807 µM and 0.402 µM, respectively.

As to `O=C(CCNCc1ccc(OC(F)(F)F)c(Cl)c1)NCCCNc1cccc2[nH]ncc12` [Example 163, N-(3-((1H-indazol-4-yl)amino)propyl)-3-((3-chloro-4-(trifluoromethoxy)benzyl)amino)propanamide], the IC50 in assay [1] is 0.217 µM; in assay [2], 6.57 µM; in assay [3] it was 26.8 µM.

With `O=C(CCNCc1ccc(OC(F)(F)F)c(Cl)c1)NCCCNc1cc(-c2cnco2)cc2[nH]ncc12` [Example 164, 3-((3-chloro-4-(trifluoromethoxy)benzyl)amino)-N-(3-((6-(oxazol-5-yl)-1H-indazol-4-yl)amino)propyl)propanamide], the IC50 in assay [1] was determined as 0.00298 µM; in assay [2] it was 0.242 µM; in assay [3], 0.135 µM.

Take `Cc1cnccc1-c1cc(NCCCNC(=O)CCNCc2ccc(OC(F)(F)F)c(Cl)c2)c2cn[nH]c2c1` [Example 165, 3-((3-chloro-4-(trifluoromethoxy)benzyl)amino)-N-(3-((6-(3-methylpyridin-4-yl)-1H-indazol-4-yl)amino)propyl)propanamide]: the IC50 in assay [1] worked out at 0.0729 µM; in assay [2] it was 7.33 µM; in assay [3], 3.74 µM.

With `Fc1cc(CNCCCCOCCNc2cc(-c3ccncc3)c(Cl)c3[nH]ncc23)cc(F)c1OC(F)(F)F` [Example 166, 7-chloro-N-(2-(4-((3,5-difluoro-4-(trifluoromethoxy)benzyl)amino)butoxy)ethyl)-6-(pyridin-4-yl)-1H-indazol-4-amine], the IC50 worked out at 0.0213 µM in assay [1], 0.783 µM in assay [2] and 2.67 µM in assay [3].

Turning to `N#Cc1cc(NCCOCCCCNCc2cc(F)c(OC(F)(F)F)c(F)c2)c2cn[nH]c2c1` [Example 167, 4-((2-(4-((3,5-difluoro-4-(trifluoromethoxy)benzyl)amino)butoxy)ethyl)amino)-1H-indazole-6-carbonitrile], the IC50 was 0.021 µM in assay [1], 0.774 µM in assay [2] and 0.831 µM in assay [3].

Turning to `O=C(CCNCc1ccc(OC(F)(F)F)c(Cl)c1)NCCCNc1cc(-c2cn[nH]c(=O)c2)cc2[nH]ncc12` [Example 168, 3-((3-chloro-4-(trifluoromethoxy)benzyl)amino)-N-(3-((6-(6-oxo-1,6-dihydropyridazin-4-yl)-1H-indazol-4-yl)amino)propyl)propanamide], the IC50 in assay [1] was 0.00064 µM; in assay [2], 0.0812 µM; in assay [3] it was 0.208 µM.

Regarding `O=C(CCNCc1ccc(OC(F)(F)F)c(Cl)c1)NCCCNc1cc(-c2ccncc2Cl)cc2[nH]ncc12` [Example 169, 3-((3-chloro-4-(trifluoromethoxy)benzyl)amino)-N-(3-((6-(3-chloropyridin-4-yl)-1H-indazol-4-yl)amino)propyl)propanamide], the IC50 in assay [1] turned out to be 0.0792 µM; in assay [2], 5.68 µM; in assay [3], 6.51 µM.

In the case of `O=C(CCNCc1ccc(OC(F)(F)F)c(Cl)c1)NCCCNc1cc(-c2cc[nH]c(=O)n2)cc2[nH]ncc12` [Example 170, 3-((3-chloro-4-(trifluoromethoxy)benzyl)amino)-N-(3-((6-(2-oxo-1,2-dihydropyrimidin-4-yl)-1H-indazol-4-yl)amino)propyl)propanamide], the IC50 in assay [1] is 0.00664 µM; in assay [2] it was 6.39 µM; in assay [3], above 50 µM.

Consider `Fc1cc(CNCCCCOCCNCc2cc(-n3cnnc3)cc3[nH]ncc23)cc(F)c1OC(F)(F)F` [Example 171, 4-(2-(((6-(4H-1,2,4-triazol-4-yl)-1H-indazol-4-yl)methyl)amino)ethoxy)-N-(3,5-difluoro-4-(trifluoromethoxy)benzyl)butan-1-amine], for which the IC50 in assay [1] was 0.0453 µM; in assay [2], 23.3 µM; in assay [3], 4.9 µM.

As for `O=C(CCNCc1ccc(OC(F)(F)F)c(Cl)c1)NCCCNCc1cc(-n2cnnc2)cc2[nH]ncc12` [Example 172, N-(3-(((6-(4H-1,2,4-triazol-4-yl)-1H-indazol-4-yl)methyl)amino)propyl)-3-((3-chloro-4-(trifluoromethoxy)benzyl)amino)propanamide], the IC50 is 0.126 µM in assay [1], 44.6 µM in assay [2] and above 50 µM in assay [3].

For `O=C(CCNCc1ccc(OC(F)(F)F)c(Cl)c1)NCCCNc1cc(-c2ncno2)cc2[nH]ncc12` [Example 173, N-(3-((6-(1,2,4-oxadiazol-5-yl)-1H-indazol-4-yl)amino)propyl)-3-((3-chloro-4-(trifluoromethoxy)benzyl)amino)propanamide], the IC50 in assay [1] was 0.00117 µM; in assay [2], 3.17 µM; in assay [3], 0.361 µM.

Regarding `O=C(CCNCc1ccc(OC(F)(F)F)c(Cl)c1)NCCCNc1cc(-c2nnc[nH]2)cc2[nH]ncc12` [Example 174, N-(3-((6-(4H-1,2,4-triazol-3-yl)-1H-indazol-4-yl)amino)propyl)-3-((3-chloro-4-(trifluoromethoxy)benzyl)amino)propanamide], the IC50 in assay [1] was 0.00741 µM; in assay [2], 5.98 µM; in assay [3], 4.64 µM.

On to `O=C(CCNCc1ccc(OC(F)(F)F)c(Cl)c1)NCCCNc1cc(-c2cocn2)cc2[nH]ncc12` [Example 175, 3-((3-chloro-4-(trifluoromethoxy)benzyl)amino)-N-(3-((6-(oxazol-4-yl)-1H-indazol-4-yl)amino)propyl)propanamide], for which the IC50 in assay [1] is 0.0107 µM; in assay [2], 1.91 µM; in assay [3], 1.24 µM.

In the case of `Fc1cc(CNCCCCOCCNc2cc(-c3ccncc3)c(F)c3[nH]ncc23)cc(F)c1OC(F)(F)F` [Example 176, N-(2-(4-((3,5-difluoro-4-(trifluoromethoxy)benzyl)amino)butoxy)ethyl)-7-fluoro-6-(pyridin-4-yl)-1H-indazol-4-amine], the IC50 in assay [1] was found to be 0.00599 µM; in assay [2] it was 0.332 µM; in assay [3] it was 0.217 µM.

As for `N#Cc1nncn1-c1cc(NCCCNC(=O)CCNCc2ccc(OC(F)(F)F)c(Cl)c2)c2cn[nH]c2c1` [Example 177, 3-((3-chloro-4-(trifluoromethoxy)benzyl)amino)-N-(3-((6-(3-cyano-4H-1,2,4-triazol-4-yl)-1H-indazol-4-yl)amino)propyl)propanamide], the results for the IC50 in assay [1], in assay [2] and in assay [3] were 0.0562 µM, 1.25 µM and 11.7 µM, respectively.

As to `Cc1c(-c2ccncc2)cc(NCCCNC(=O)CCNCc2ccc(OC(F)(F)F)c(Cl)c2)c2cn[nH]c12` [Example 178, 3-((3-chloro-4-(trifluoromethoxy)benzyl)amino)-N-(3-((7-methyl-6-(pyridin-4-yl)-1H-indazol-4-yl)amino)propyl)propanamide], the IC50 in assay [1] is 0.0239 µM; in assay [2] it was 1.5 µM; in assay [3], 2.54 µM.

In the case of `Cc1c(-c2ccncc2)cc(NCCOCCCCNCc2cc(F)c(OC(F)(F)F)c(F)c2)c2cn[nH]c12` [Example 179, N-(2-(4-((3,5-difluoro-4-(trifluoromethoxy)benzyl)amino)butoxy)ethyl)-7-methyl-6-(pyridin-4-yl)-1H-indazol-4-amine], the IC50 amounted to 0.0427 µM in assay [1], 1.93 µM in assay [2] and 1.45 µM in assay [3].
